Reference: US20210380548A1, “Fused [1,2,4]Thiadiazine Derivatives Which Act as KAT Inhibitors of the MYST Family” (CTxT Pty Limited, priority 2017, published 2021)

What was measured:
MOF-KAT8 [1] = target: T1, MOF-KAT8 (Homo sapiens, UniProt Q9H7Z6); experiment: Acetyltransferase biochemical assay (AlphaScreen), KAT8; details: Table 4 (MOF-KAT8); 0.4 μM Acetyl coenzyme A, histone H4, 20 nM enzyme
T1 sequence (Q9H7Z6 177-447): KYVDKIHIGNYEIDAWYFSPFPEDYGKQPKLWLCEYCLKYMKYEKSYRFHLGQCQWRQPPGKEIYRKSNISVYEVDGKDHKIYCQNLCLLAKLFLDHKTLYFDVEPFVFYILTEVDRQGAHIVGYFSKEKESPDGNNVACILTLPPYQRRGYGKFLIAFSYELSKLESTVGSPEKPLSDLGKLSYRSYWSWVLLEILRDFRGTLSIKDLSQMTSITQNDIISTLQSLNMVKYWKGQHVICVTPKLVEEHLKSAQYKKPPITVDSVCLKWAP

MOZ-KAT6A [2] = target: T2, MOZ-KAT6A (Homo sapiens, UniProt Q92794, A567V); experiment: Revised Acetyltransferase Biochemical Assay, KAT6A; details: Table 8 (MOZ-KAT6A), 1 μM Acetyl coenzyme A
T2 construct: encoding amino acid residues 507 to 778 (Uniprot Q92794-1) of human KAT6A; made in house; host or cells: E. coli BL21 DE3

MOZ-KAT6A [3] = target: T2, MOZ-KAT6A; experiment: Acetyltransferase biochemical assay (AlphaScreen), KAT6A; details: Table 2 (MOZ-KAT6A); 10 μM Acetyl coenzyme A, histone H3.1, 5 nM enzyme
HBO-KAT7 [4] = target: T3, HBO-KAT7 (Homo sapiens, UniProt O95251); experiment: Revised Acetyltransferase Biochemical Assay, KAT7; details: Table 9 (HBO-KAT7), 1 μM Acetyl coenzyme A
T3 construct: encoding amino acid residues 325 to 611 (Uniprot 095251-1) of human KAT7; made in house; host or cells: E. coli BL21 DE3 RIL

QKF-KAT6B = target: T4, QKF-KAT6B (Homo sapiens, UniProt Q8WYB5); experiment: Revised Acetyltransferase Biochemical Assay, KAT6B; details: 8 nM KAT6B, 1 μM AcCoA, 100 nM histone H3.1, 90 min
T4 construct: purchased SignalChem K315-381BG
Source text: KAT6B was obtained from SignalChem, catalog ID: K315-381BG

MOF-KAT8 [5] = target: T1, MOF-KAT8; experiment: Revised Acetyltransferase Biochemical Assay, KAT8
[6] = system: histone H3K14 acetylation (HBO1 mediated) in U2OS cells; experiment: Histone H3 Lysine 14 Acetylation Biomarker Assay (96 well, U2OS); type: cell-based; details: Homo sapiens, 24 h, Table 6, H3K14ac, 24 hours incubation, serum free medium
In short: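 U2OS cells treated 24 h with compound in serum-free medium, then fixed and immunostained for H3K14ac (Alexa647) with Hoechst nuclear stain. High-content imaging gives mean nuclear intensity per cell, converted to % inhibition against DMSO and 10 μM reference-inhibitor controls; IC50 from four-parameter logistic fit.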

HBO-KAT7 [7] = target: T3, HBO-KAT7; experiment: Acetyltransferase biochemical assay (AlphaScreen), KAT7; details: Table 3 (HBO-KAT7); 0.4 μM Acetyl coenzyme A, histone H3.1, 40 nM enzyme
TIP60-KAT5 [8] = target: T5, TIP60-KAT5 (Homo sapiens, UniProt Q92993); experiment: Revised Acetyltransferase Biochemical Assay, KAT5; details: 10 nM KAT5, 1 μM AcCoA, 100 nM histone H4, 90 min
T5 construct: encoding amino acid residues 2 to 461 (Uniprot Q92993-2) of human KAT5 isoform; made in house; host or cells: E. coli BL21 DE3

TIP60-KAT5 [9] = target: T5, TIP60-KAT5; experiment: Acetyltransferase biochemical assay (AlphaScreen), KAT5; details: Table 1 (TIP60-KAT5); 0.4 μM Acetyl coenzyme A, histone H4, 10 nM enzyme

T5 sequence (Q92993 2-461 isoform Q92993-2): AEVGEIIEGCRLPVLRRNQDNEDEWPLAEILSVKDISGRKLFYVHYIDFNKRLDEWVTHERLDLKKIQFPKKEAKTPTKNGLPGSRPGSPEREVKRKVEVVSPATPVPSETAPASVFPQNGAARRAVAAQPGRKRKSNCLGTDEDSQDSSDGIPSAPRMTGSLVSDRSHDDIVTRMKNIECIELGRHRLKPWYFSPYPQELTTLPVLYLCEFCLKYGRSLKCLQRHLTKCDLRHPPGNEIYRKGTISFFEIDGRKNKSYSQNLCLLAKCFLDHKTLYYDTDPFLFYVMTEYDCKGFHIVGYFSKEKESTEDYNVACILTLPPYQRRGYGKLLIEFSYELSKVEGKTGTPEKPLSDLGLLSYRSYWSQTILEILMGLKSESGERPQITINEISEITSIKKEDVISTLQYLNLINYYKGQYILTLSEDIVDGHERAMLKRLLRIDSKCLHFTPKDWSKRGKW
T2 sequence (Q92794 507-778 A567V limits assumed): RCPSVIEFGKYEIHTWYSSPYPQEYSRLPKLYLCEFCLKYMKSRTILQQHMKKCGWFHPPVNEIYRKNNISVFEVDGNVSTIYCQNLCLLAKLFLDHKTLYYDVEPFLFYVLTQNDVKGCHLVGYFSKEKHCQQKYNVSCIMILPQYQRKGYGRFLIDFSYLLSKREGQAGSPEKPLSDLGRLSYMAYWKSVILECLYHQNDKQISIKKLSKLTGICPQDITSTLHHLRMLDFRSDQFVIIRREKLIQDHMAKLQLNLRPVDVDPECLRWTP
T3 sequence (O95251 with tags, fused parts or gaps): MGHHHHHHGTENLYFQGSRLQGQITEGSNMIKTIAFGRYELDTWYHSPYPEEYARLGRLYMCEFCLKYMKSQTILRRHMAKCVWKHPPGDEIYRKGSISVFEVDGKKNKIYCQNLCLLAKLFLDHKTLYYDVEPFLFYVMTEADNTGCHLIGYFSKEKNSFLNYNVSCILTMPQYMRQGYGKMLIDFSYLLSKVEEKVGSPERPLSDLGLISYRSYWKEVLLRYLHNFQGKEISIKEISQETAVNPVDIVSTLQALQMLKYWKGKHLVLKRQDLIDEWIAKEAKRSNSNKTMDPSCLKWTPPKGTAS
T4 sequence (Q8WYB5 whole entry): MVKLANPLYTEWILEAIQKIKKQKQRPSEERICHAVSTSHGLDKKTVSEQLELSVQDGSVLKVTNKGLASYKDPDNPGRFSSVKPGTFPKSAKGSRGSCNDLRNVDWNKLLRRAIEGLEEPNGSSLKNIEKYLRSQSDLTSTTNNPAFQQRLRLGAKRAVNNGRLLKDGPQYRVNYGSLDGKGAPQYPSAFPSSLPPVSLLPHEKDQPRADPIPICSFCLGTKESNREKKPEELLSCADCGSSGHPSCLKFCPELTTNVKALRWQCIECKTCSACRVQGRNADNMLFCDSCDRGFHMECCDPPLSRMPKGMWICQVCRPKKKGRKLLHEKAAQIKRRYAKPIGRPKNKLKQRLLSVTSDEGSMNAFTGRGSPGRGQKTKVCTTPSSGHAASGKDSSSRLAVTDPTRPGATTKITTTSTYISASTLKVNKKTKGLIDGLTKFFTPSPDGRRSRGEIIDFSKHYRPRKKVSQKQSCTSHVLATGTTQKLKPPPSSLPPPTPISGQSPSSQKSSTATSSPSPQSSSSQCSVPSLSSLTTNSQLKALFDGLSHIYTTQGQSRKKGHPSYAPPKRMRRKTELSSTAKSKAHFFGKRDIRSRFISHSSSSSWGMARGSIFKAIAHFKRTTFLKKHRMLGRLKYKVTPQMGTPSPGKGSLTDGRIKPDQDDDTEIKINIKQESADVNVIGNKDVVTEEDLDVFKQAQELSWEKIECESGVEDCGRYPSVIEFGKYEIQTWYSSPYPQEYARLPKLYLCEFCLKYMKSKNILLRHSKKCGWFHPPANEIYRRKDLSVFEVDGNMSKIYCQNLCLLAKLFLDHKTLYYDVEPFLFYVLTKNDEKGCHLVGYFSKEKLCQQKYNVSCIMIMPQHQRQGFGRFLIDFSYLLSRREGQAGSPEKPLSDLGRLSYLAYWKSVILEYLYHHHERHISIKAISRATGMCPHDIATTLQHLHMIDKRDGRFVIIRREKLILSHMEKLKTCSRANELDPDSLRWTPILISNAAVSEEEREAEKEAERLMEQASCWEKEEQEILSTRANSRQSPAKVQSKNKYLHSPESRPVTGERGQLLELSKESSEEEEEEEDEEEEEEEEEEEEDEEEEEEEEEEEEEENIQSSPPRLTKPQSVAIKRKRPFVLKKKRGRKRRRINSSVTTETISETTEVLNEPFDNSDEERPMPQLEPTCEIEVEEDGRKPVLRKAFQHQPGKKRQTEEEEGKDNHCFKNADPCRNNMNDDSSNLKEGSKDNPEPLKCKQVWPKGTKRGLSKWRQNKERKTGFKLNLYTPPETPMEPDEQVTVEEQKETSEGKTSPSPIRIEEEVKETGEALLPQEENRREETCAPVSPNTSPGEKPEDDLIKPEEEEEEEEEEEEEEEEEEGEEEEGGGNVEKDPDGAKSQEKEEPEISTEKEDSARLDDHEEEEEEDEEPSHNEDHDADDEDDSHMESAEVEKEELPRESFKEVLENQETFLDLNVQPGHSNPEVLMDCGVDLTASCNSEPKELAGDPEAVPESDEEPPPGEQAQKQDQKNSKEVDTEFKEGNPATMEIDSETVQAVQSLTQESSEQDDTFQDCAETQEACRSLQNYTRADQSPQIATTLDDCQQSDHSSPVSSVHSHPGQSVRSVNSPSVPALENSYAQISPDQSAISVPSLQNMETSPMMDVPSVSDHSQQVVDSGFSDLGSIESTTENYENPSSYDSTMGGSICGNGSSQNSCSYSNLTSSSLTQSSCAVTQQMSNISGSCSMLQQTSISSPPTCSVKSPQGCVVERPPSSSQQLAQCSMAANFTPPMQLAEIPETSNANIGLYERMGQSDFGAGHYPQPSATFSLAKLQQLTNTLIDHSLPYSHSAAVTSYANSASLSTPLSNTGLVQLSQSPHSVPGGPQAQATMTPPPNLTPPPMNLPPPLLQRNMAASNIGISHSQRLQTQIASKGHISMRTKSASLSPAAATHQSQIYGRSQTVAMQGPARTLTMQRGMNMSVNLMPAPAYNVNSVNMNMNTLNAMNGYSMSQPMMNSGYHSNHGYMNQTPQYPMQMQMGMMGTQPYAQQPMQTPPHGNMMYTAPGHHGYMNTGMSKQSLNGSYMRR

For `O=C(NCC(c1ccccc1)c1ncco1)C1=Nc2ccc(Br)cc2S(=O)(=O)N1` (centres unmarked) [Example 1, 7-Bromo-N-(2-(oxazol-2-yl)-2-phenylethyl)-2H-benzo[e][1,2,4]thiadiazine-3-carboxamide 1,1-dioxide], the IC50 (MOF-KAT8 [1]) was 14600 nM, the IC50 (MOZ-KAT6A [2]) was 5 nM and the IC50 (MOZ-KAT6A [3]) was 24.1 nM. The IC50 (HBO-KAT7 [4]) was 76 nM, the IC50 (QKF-KAT6B) was 60 nM and the IC50 (MOF-KAT8 [5]) was 4540 nM. It also gave an IC50 [6] of 317 nM, an IC50 (HBO-KAT7 [7]) of 63.8 nM and an IC50 (TIP60-KAT5 [8]) of 68 nM. The IC50 (TIP60-KAT5 [9]) was 286 nM.
Work on `O=C(NCC(c1ccccc1)c1ncco1)C1=Nc2ccccc2S(=O)(=O)N1` (centres unmarked) [Example 46, N-(2-(oxazol-2-yl)-2-phenylethyl)-2H-benzo[e][1,2,4]thiadiazine-3-carboxamide 1,1-dioxide] yielded an IC50 (MOF-KAT8 [1]) of 88200 nM, an IC50 (MOZ-KAT6A [2]) of 64 nM and an IC50 (MOZ-KAT6A [3]) of 324 nM. The IC50 (HBO-KAT7 [4]) was 1080 nM, the IC50 (QKF-KAT6B) was 589 nM and the IC50 (MOF-KAT8 [5]) was 99400 nM. The IC50 [6] was 8160 nM, the IC50 (HBO-KAT7 [7]) was 2650 nM and the IC50 (TIP60-KAT5 [8]) was 4050 nM. For the same compound, the IC50 (TIP60-KAT5 [9]) was 9710 nM.
Compound `O=C(NCCc1ccccc1-n1nccn1)C1=Nc2ccc(I)cc2S(=O)(=O)N1` [Example 60, N-(2-(2H-1,2,3-triazol-2-yl)phenethyl)-7-iodo-2H-benzo[e][1,2,4]thiadiazine-3-carboxamide 1,1-dioxide] has an IC50 (MOZ-KAT6A [2]) of 10 nM, an IC50 (HBO-KAT7 [4]) of 201 nM and an IC50 (QKF-KAT6B) of 39 nM. It also gave an IC50 (MOF-KAT8 [5]) of 24000 nM, an IC50 [6] of 1610 nM and an IC50 (HBO-KAT7 [7]) of 555 nM. The IC50 (TIP60-KAT5 [8]) was 58 nM and the IC50 (TIP60-KAT5 [9]) was 327 nM.
`O=C(NCCc1ccccc1OC(F)F)C1=Nc2ccc(I)cc2S(=O)(=O)N1` [Example 91] showed an IC50 (MOF-KAT8 [1]) of 12100 nM, an IC50 (MOZ-KAT6A [2]) of 24 nM and an IC50 (MOZ-KAT6A [3]) of 594 nM. For the same compound, the IC50 (HBO-KAT7 [4]) was 74 nM, the IC50 (QKF-KAT6B) was 350 nM and the IC50 (MOF-KAT8 [5]) was 21100 nM. The IC50 [6] was 615 nM, the IC50 (HBO-KAT7 [7]) was 339 nM and the IC50 (TIP60-KAT5 [8]) was 90 nM. For the same compound, the IC50 (TIP60-KAT5 [9]) was 209 nM.
